Several values for one entry are separate records, joined by “and”; a condition that tells them apart may be missing. Equal entries are not always repeated. Toxic doses and inconclusive results are not listed. The calls were made as follows: active = survival T/C of 150% or more; inactive = T/C below 125% in these data.
System: CD2F1 mice, L1210 leukemia ip, survival T/C
Experiment: NCI In Vivo Anticancer Drug Screen. Data for tumor model L1210 Leukemia (intraperitoneal) in CD2F1 (CDF1) mice
Details: higher = longer survival
Outline: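 Each value reflects a quotient of treated over vehicle control outcomes in mice with a transplanted tumor.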

[1] = endpoint: mean survival time, dose: 50.0 mg/kg/injection, schedule: Q04DX003 (ip), vehicle: saline with Tween-80
[2] = endpoint: mean survival time, dose: 100.0 mg/kg/injection, schedule: Q04DX003 (ip), vehicle: saline with Tween-80
[3] = endpoint: mean survival time, dose: 200.0 mg/kg/injection, schedule: Q04DX003 (ip), vehicle: saline with Tween-80
[4] = endpoint: mean survival time, dose: 400.0 mg/kg/injection, schedule: Q04DX003 (ip), vehicle: saline with Tween-80
[5] = endpoint: mean survival time, dose: 100.0 mg/kg/injection, schedule: Q01DX001 (ip), vehicle: saline
[6] = endpoint: mean survival time, dose: 200.0 mg/kg/injection, schedule: Q01DX001 (ip), vehicle: saline
[7] = endpoint: mean survival time, dose: 400.0 mg/kg/injection, schedule: Q01DX001 (ip), vehicle: saline
[8] = endpoint: mean survival time, dose: 100.0 mg/kg/injection, schedule: Q04DX002 (ip), vehicle: saline with Tween-80
[9] = endpoint: mean survival time, dose: 200.0 mg/kg/injection, schedule: Q04DX002 (ip), vehicle: saline with Tween-80
[10] = endpoint: mean survival time, dose: 100.0 mg/kg/injection, schedule: Q01DX009 (ip), vehicle: saline with Tween-80
[11] = endpoint: mean survival time, dose: 200.0 mg/kg/injection, schedule: Q01DX009 (ip), vehicle: saline with Tween-80
[12] = endpoint: mean survival time, dose: 400.0 mg/kg/injection, schedule: Q01DX009 (ip), vehicle: saline with Tween-80
[13] = endpoint: mean survival time, dose: 50.0 mg/kg/injection, schedule: Q01DX009 (ip), vehicle: saline
[14] = endpoint: mean survival time, dose: 100.0 mg/kg/injection, schedule: Q01DX009 (ip), vehicle: saline
[15] = endpoint: mean survival time, dose: 25.0 mg/kg/injection, schedule: Q04DX003 (ip), vehicle: saline with Tween-80
[16] = endpoint: mean survival time, dose: 50.0 mg/kg/injection, schedule: Q01DX009 (ip), vehicle: saline with Tween-80

Measured: T/C

Nc1nc(N)c2[nH]cnc2n1
inactive: endpoint: mean survival time, dose: 12.5 mg/kg/injection, schedule: Q01DX005 (ip), vehicle: Klucel (hydroxypropylcellulose) (HPC) 101 % of control | endpoint: mean survival time, dose: 25.0 mg/kg/injection, schedule: Q01DX005 (ip), vehicle: Klucel (hydroxypropylcellulose) (HPC) 101 % of control | endpoint: mean survival time, dose: 50.0 mg/kg/injection, schedule: Q01DX005 (ip), vehicle: Klucel (hydroxypropylcellulose) (HPC) 106 % of control | [1] 95 % of control | endpoint: mean survival time, dose: 100.0 mg/kg/injection, schedule: Q01DX005 (ip), vehicle: Klucel (hydroxypropylcellulose) (HPC) 110 % of control | [2] 95 % of control | [3] 97 % of control | [4] 97 % of control

O=C(Nc1cc(Cl)ccc1C(=O)O)c1cccc(C[n+]2ccccc2)c1
inactive: endpoint: median survival time, dose: 50.0 mg/kg/injection, schedule: Q01DX005 (ip), vehicle: saline with Tween-80 105 % of control | endpoint: median survival time, dose: 100.0 mg/kg/injection, schedule: Q01DX005 (ip), vehicle: saline with Tween-80 98 % of control | endpoint: median survival time, dose: 200.0 mg/kg/injection, schedule: Q01DX005 (ip), vehicle: saline with Tween-80 95 % of control | endpoint: median survival time, dose: 400.0 mg/kg/injection, schedule: Q01DX005 (ip), vehicle: saline with Tween-80 91 % of control

COc1cc2c(cc1OC)C(Cc1ccccc1[N+](=O)[O-])=NCC2
inactive: [5] 101 % of control | [6] 94 % of control | [7] 95 % of control

CCOc1cc(N)nc2c1nnn2C1OC(CO)C(O)C1O (configuration not stated)
inactive: endpoint: mean survival time, dose: 6.25 mg/kg/injection, schedule: Q01DX005 (ip), vehicle: other 107 % of control | endpoint: mean survival time, dose: 12.5 mg/kg/injection, schedule: Q01DX005 (ip), vehicle: other 98 % of control | endpoint: mean survival time, dose: 25.0 mg/kg/injection, schedule: Q01DX005 (ip), vehicle: other 101 % of control | endpoint: mean survival time, dose: 50.0 mg/kg/injection, schedule: Q01DX005 (ip), vehicle: other 98 % of control | endpoint: mean survival time, dose: 100.0 mg/kg/injection, schedule: Q01DX005 (ip), vehicle: other 101 % of control | endpoint: mean survival time, dose: 200.0 mg/kg/injection, schedule: Q01DX005 (ip), vehicle: other 98 % of control

Cc1ccc(C)c(OC(=O)Nc2cccc3ccccc23)c1
inactive: [8] 91 % of control | [9] 91 % of control | endpoint: mean survival time, dose: 400.0 mg/kg/injection, schedule: Q04DX002 (ip), vehicle: saline with Tween-80 91 % of control

Cc1c(Cl)cc(Cl)c(N)c1Cl
inactive: [10] 93 % of control | [11] 97 % of control | [12] 97 % of control

NNC(=O)C1CC2CCC1C2 (configuration not stated)
inactive: [13] 107 % of control | [14] 109 % of control | endpoint: mean survival time, dose: 100.0 mg/kg/injection, schedule: Q04DX003 (ip), vehicle: saline 97 % of control | endpoint: mean survival time, dose: 200.0 mg/kg/injection, schedule: Q01DX009 (ip), vehicle: saline 105 % of control | endpoint: mean survival time, dose: 200.0 mg/kg/injection, schedule: Q04DX003 (ip), vehicle: saline 114 % of control

S=C(S)Nc1ccc(Cc2ccc(NC(=S)S)cc2)cc1
inactive: [10] 98 % of control | [11] 96 % of control | [12] 93 % of control

O=C1c2ccccc2C(=O)N1CC(O)COc1ccccc1[N+](=O)[O-] (configuration not stated)
inactive: [8] 88 % of control | [9] 100 % of control

O=C(O)c1cccnc1Cl
inactive: endpoint: mean survival time, dose: 75.0 mg/kg/injection, schedule: Q01DX009 (ip), vehicle: Klucel (hydroxypropylcellulose) (HPC) 111 % of control | endpoint: mean survival time, dose: 150.0 mg/kg/injection, schedule: Q01DX009 (ip), vehicle: Klucel (hydroxypropylcellulose) (HPC) 94 % of control

CCCCN(Cc1ccccc1)CC(O)C[NH-].CS(C)=O.[Cl-].[Cl-].[Pt+4] (configuration not stated)
inactive: endpoint: median survival time, dose: 10.0 mg/kg/injection, schedule: Q04DX003 (ip), vehicle: saline 100 % of control | endpoint: median survival time, dose: 20.0 mg/kg/injection, schedule: Q04DX003 (ip), vehicle: saline 110 % of control | endpoint: median survival time, dose: 40.0 mg/kg/injection, schedule: Q04DX003 (ip), vehicle: saline 108 % of control | endpoint: median survival time, dose: 50.0 mg/kg/injection, schedule: Q04DX003 (ip), vehicle: saline 103 % of control | endpoint: median survival time, dose: 80.0 mg/kg/injection, schedule: Q04DX003 (ip), vehicle: saline 109 % of control

Clc1c(CI)ccc(CI)c1Cl
inactive: [15] 95 % of control | [1] 97 % of control | [2] 102 % of control

CCCCCCCCCCCCCCCC(=O)N1CCC(N2CCCCC2)CC1
inactive: [16] 95 % of control | [10] 97 % of control | [2] 92 % of control | [11] 92 % of control | [3] 88 % of control

C=CCS(=O)(=O)Cc1cccc([N+](=O)[O-])c1
inactive: endpoint: mean survival time, dose: 100.0 mg/kg/injection, schedule: Q04DX002 (ip), vehicle: Klucel (hydroxypropylcellulose) (HPC) 103 % of control | endpoint: mean survival time, dose: 200.0 mg/kg/injection, schedule: Q04DX002 (ip), vehicle: Klucel (hydroxypropylcellulose) (HPC) 94 % of control | endpoint: mean survival time, dose: 400.0 mg/kg/injection, schedule: Q04DX002 (ip), vehicle: Klucel (hydroxypropylcellulose) (HPC) 90 % of control

O.[Co].[NH2-].[NH2-].[NH2-].[NH2-].[NH2-]
inactive: endpoint: mean survival time, dose: 25.0 mg/kg/injection, schedule: Q04DX002 (ip), vehicle: saline with Tween-80 93 % of control | [8] 90 % of control | endpoint: mean survival time, dose: 100.0 mg/kg/injection, schedule: Q04DX002 (ip), vehicle: saline 98 % of control

O=C(O)C(CNC(=O)C(F)(F)F)Cc1ccc([N+](=O)[O-])cc1 (configuration not stated)
inactive: endpoint: mean survival time, dose: 12.5 mg/kg/injection, schedule: Q01DX009 (ip), vehicle: saline 98 % of control and 101 % of control | endpoint: mean survival time, dose: 25.0 mg/kg/injection, schedule: Q01DX009 (ip), vehicle: saline 98 % of control | [13] 97 % of control and 107 % of control | [14] 103 % of control

CSC(=S)N/N=C(\C)c1ccccn1
inactive: [15] 98 % of control | [1] 107 % of control | [2] 110 % of control

COC1OC(COC(C)=O)C(n2cnc3c2c(=O)n(C)c(=O)n3C)C=C1NC(C)=O (configuration not stated)
inactive: endpoint: mean survival time, dose: 12.5 mg/kg/injection, schedule: Q01DX005 (ip), vehicle: distilled water + Tween-80 94 % of control | endpoint: mean survival time, dose: 25.0 mg/kg/injection, schedule: Q01DX005 (ip), vehicle: distilled water + Tween-80 96 % of control | endpoint: mean survival time, dose: 50.0 mg/kg/injection, schedule: Q01DX005 (ip), vehicle: distilled water + Tween-80 90 % of control | endpoint: mean survival time, dose: 100.0 mg/kg/injection, schedule: Q01DX005 (ip), vehicle: distilled water + Tween-80 94 % of control | endpoint: mean survival time, dose: 200.0 mg/kg/injection, schedule: Q01DX005 (ip), vehicle: distilled water + Tween-80 108 % of control

CC(=O)NS(=O)(=O)c1ccc([NH-])cc1.CC(=O)NS(=O)(=O)c1ccc([NH-])cc1.[Cl][Pt+2][Cl]
inactive: [15] 102 % of control | [1] 97 % of control | [2] 96 % of control | [3] 94 % of control | [4] 104 % of control

O=C(O)C(=O)O.[Mn]
inactive: [2] 100 % of control | [3] 100 % of control | [4] 96 % of control

O=c1cc(-c2ccc3c(c2)OCO3)oc2ccccc12
inactive: endpoint: mean survival time, dose: 50.0 mg/kg/injection, schedule: Q01DX001 (ip), vehicle: saline 102 % of control | [5] 98 % of control | [6] 98 % of control | [7] 92 % of control

C=CCON
inactive: endpoint: mean survival time, dose: 75.0 mg/kg/injection, schedule: Q01DX001 (ip), vehicle: saline 100 % of control

O=C(Nc1ccccc1)Oc1ccc(OCc2ccccc2)cc1
inactive: endpoint: mean survival time, dose: 12.5 mg/kg/injection, schedule: Q01DX009 (ip), vehicle: saline with Tween-80 94 % of control | endpoint: mean survival time, dose: 25.0 mg/kg/injection, schedule: Q01DX009 (ip), vehicle: saline with Tween-80 90 % of control | [16] 92 % of control

C(=NCCN=Cc1ccccc1)c1ccccc1
inactive: [10] 97 % of control | [11] 97 % of control | [12] 96 % of control

CCCCCCCCCCCCCCCCCCCCCC(CC)CC
inactive: endpoint: mean survival time, dose: 100.0 mg/kg/injection, schedule: Q01DX001 (ip), vehicle: saline with Tween-80 101 % of control | endpoint: mean survival time, dose: 200.0 mg/kg/injection, schedule: Q01DX001 (ip), vehicle: saline with Tween-80 107 % of control | endpoint: mean survival time, dose: 400.0 mg/kg/injection, schedule: Q01DX001 (ip), vehicle: saline with Tween-80 103 % of control

From PubChem BioAssay AID256 (DTP/NCI, 2004)
